The test system of experiment [1] is Dermacentor variabilis. Kind of experiment: Topical treatment in-vivo test with American dog tick nymph on rats. The following applies: topical spot-on, 25 mg/kg. Here is the method:
(§1) Topical Treatment In-Vivo Test with American Dog Tick Nymph and Cat Flea on Rats
(§2) Type of study and overall study design: The method is a randomized non-blinded efficacy study in accordance with European animal welfare requirements. Rats (Rattus norvegicus) were randomized based on pre-treatment flea counts. The efficacy of treatment was determined by comparison of the flea and tick counts of different treatment groups versus the placebo-treated control group. The experimental unit was the individual study animal.
(§3) Method and route of administration: The compound was applied in a suitable solvent and carrier (more specifically, added to the following mixture: 33.3% by weight propylene carbonate, […] N-methylpyrrolidone, 0.1% by weight BHA, 0.05% by weight BHT) considering the individual body weight as topical spot-on between the shoulder blades directly onto the skin.
(§4) Experimental infestation: On the day of treatment and weekly thereafter, 30 ticks (D. variabilis nymphs) were released onto the back of each rat, and 30 fleas (C. felis) were released onto the back of each rat 24 h later.
(§5) Tick and Flea counting: Rats were thoroughly examined and ticks and fleas were manually removed 48 h (+4 h) after tick infestation and 24 h after flea infestation. Live fleas and live attached engorged ticks were counted. In non-evident cases, engorgement status was evaluated by squeezing the tick on a filter paper to find traces of blood as sign for engorgement.

Experiment [2] has as its system Amblyomma americanum. Put plainly: In vitro contact test with hard ticks (Amblyomma americanum nymphs). The conditions noted are these: read-out: acaricidal activity; for pest or weed control at 1 µg/cm2, 1 µg/cm2: dose 1 μg/cm^2, 48 h. The gist of the method:
(§6)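 Adult R. sanguineus, I. ricinus, D. variabilis or A. americanum nymphs exposed in glass vials coated with compound from acetone (900 ppm gives 5 μg/cm^2). Held 48 h at room temperature (R. sanguineus) or 21° C., 85% rel. hum.; then heated at 45-50° C. ≤5 min, motionless or uncoordinated ticks scored dead/moribund.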

Experiment [3] deals with Rhipicephalus sanguineus. Put plainly: In vitro contact test with adult hard ticks (Rhipicephalus sanguineus). The following applies: read-out: acaricidal activity; for pest or weed control at 0.2 µg/cm2, 0.2 µg/cm2: dose 0.2 μg/cm^2, 48 h; for pest or weed control at 1 µg/cm2, 1 µg/cm2: dose 1 μg/cm^2, 48 h. Summed up:
as §6

The test system of experiment [4] is Ctenocephalides felis. Kind of experiment: Topical treatment in-vivo test with cat flea on rats. The following applies: topical spot-on, 25 mg/kg. Here is the method: as §1, §2, §3, §4, §5
The test system of experiment [5] is Laodelphax striatellus. Put plainly: Insecticidal testing against small brown planthopper. The following applies: 144 h, concentration 100 ppm, sprayed rice seedlings, after 6 days, read-out: pesticidal rate. The experiment is classed as in vivo. Summed up: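 Acetone solution of compound at a set concentration sprayed onto rice seedlings, air-dried, then exposed to 10 planthoppers (one group). Held at 25° C; survival rate recorded after 6 days.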

Experiment [6] deals with Dermacentor variabilis. Kind of experiment: Systemic treatment in-vivo test with American dog tick nymph on rats. The conditions noted are these: Dermacentor variabilis, ip, intraperitoneal injection. The gist of the method: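 Rats dosed intraperitoneally per body weight in glycerol formal (up to 25% NMP for poorly soluble compounds). 30 D. variabilis nymphs released on treatment day and weekly, 30 C. felis fleas 24 h later; live attached engorged ticks counted at 48 h (±4 h), live fleas at 24 h, efficacy versus placebo group.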

Experiment [7] has as its system Ixodes ricinus. Kind of experiment: In vitro contact test with adult hard ticks (Ixodes ricinus). The conditions noted are these: read-out: acaricidal activity. Summed up:
as §6

Where [8] appears, read: SD 2, read-out: Geometric mean percent reduction in live tick (Dermacentor variabilis) counts compared to untreated control rats.
The mark [9] stands for this setting: SD 9, read-out: Geometric mean percent reduction in live tick (Dermacentor variabilis) counts compared to untreated control rats.
The mark [10] stands for this setting: SD 16, read-out: Geometric mean percent reduction in live tick (Dermacentor variabilis) counts compared to untreated control rats.
Where [11] appears, read: SD 23, read-out: Geometric mean percent reduction in live tick (Dermacentor variabilis) counts compared to untreated control rats.

This is an account of results in patent US11696913B2, “Prolonged ectoparasite-controlling agent for animal” (MITSUI CHEMICALS AGRO, INC., priority 2017, dated 2023).

Like-named read-outs stand apart in the source and are kept apart here. A value given as a limit tells only on which side of the number the result lay.

For `CN(C(=O)c1ccc(F)c(F)c1)c1cccc(C(=O)Nc2c(I)cc(C(F)(C(F)(F)F)C(F)(F)F)cc2C(F)(F)F)c1F` [Compound 51], the “Geometric mean percent reduction in live tick (Dermacentor variabilis) counts compared to untreated control rats” value in experiment [1] (SD 2) is listed as 82%; in experiment [1] (SD 9), 95%; in experiment [1] (SD 16), 80%; in experiment [1] (SD 23), 73%; in experiment [1] (SD 30) it was 55%. Further, the pest or weed control at 1 µg/cm2, 1 µg/cm2 in experiment [2] and in experiment [3] was 90% throughout. Also, the pest or weed control at 0.2 µg/cm2, 0.2 µg/cm2 in experiment [3] was 90%. In addition, the “Geometric mean percent reduction in live flea (Ctenocephalides felis) counts compared to untreated control rats” value was found to be 100% in experiment [4] (SD 2); 98% in experiment [4] (SD 9); 91% in experiment [4] (SD 16); 95% in experiment [4] (SD 23); 93% in experiment [4] (SD 30). Also, the pest or weed control at 100 ppm in experiment [5] is at least 70%.

`O=C(Nc1cccc(C(=O)Nc2c(I)cc(C(F)(C(F)(F)F)C(F)(F)F)cc2C(F)(F)F)c1F)c1ccc(C(F)(F)F)nc1` [Compound 67, N-(2-fluoro-3-((2-iodo-4-(perfluoropropan-2-yl)-6-(trifluoromethyl)phenyl)carbamoyl)phenyl)-6-(trifluoromethyl)nicotinamide]: the inhibition in vivo at 2 mg/kg was 100% in experiment [6] (setting [8]), 95% in experiment [6] (setting [9]), 32% in experiment [6] (setting [10]) and 20% in experiment [6] (setting [11]). For the same molecule, the inhibition in vivo at 10 mg/kg worked out at 100% in experiment [6] (setting [8]); 100% in experiment [6] (setting [9]); 99% in experiment [6] (setting [10]); 75% in experiment [6] (setting [11]); 57% in experiment [6] (SD 30, read-out: Geometric mean percent reduction in live tick (Dermacentor variabilis) counts compared to untreated control rats). The “Geometric mean percent reduction in live tick (Dermacentor variabilis) counts compared to untreated control rats” value turned out to be 57% in experiment [1] (SD 2); 98% in experiment [1] (SD 9); 100% in experiment [1] (SD 16); 100% in experiment [1] (SD 23); 77% in experiment [1] (SD 30). For the same molecule, the pest or weed control at 0.2 µg/cm2, 0.2 µg/cm2 came to 90% in experiment [2] (dose 0.2 μg/cm^2, 48 h); 90% in experiment [3]; 90% in experiment [7] (dose 0.2 μg/cm^2, 48 h). For the same molecule, the pest or weed control at 1 µg/cm2, 1 µg/cm2 in experiment [2] came to 90%; in experiment [3] it was 90%; in experiment [7] (dose 1 μg/cm^2, 48 h), 90%. Besides, the pest or weed control at 0.04 µg/cm2, 0.04 µg/cm2 in experiment [3] (dose 0.04 μg/cm^2, 48 h) was 90%. For the same molecule, the pest or weed control at 5 µg/cm2, 5 µg/cm2 in experiment [7] (dose 5 μg/cm^2, 48 h) came to 90%. In addition, the “Geometric mean percent reduction in live flea (Ctenocephalides felis) counts compared to untreated control rats” value is reported as 98% in experiment [4] (SD 2); 93% in experiment [4] (SD 9); 97% in experiment [4] (SD 16); 81% in experiment [4] (SD 23); 79% in experiment [4] (SD 30). Besides, in experiment [5], the pest or weed control at 100 ppm is at least 70%.
